Columns and labels:
Saccharomyces cerevisiae [1] = test: DNA damaging activity against DNA repair-proficient yeast RAD+ assessed as drug concentration required to produce 12 mm zone of inhibition; type: functional
Saccharomyces cerevisiae [2] = test: DNA damaging activity against DNA repair-deficient yeast RAD52 mutant assessed as drug concentration required to produce 12 mm zone of inhibition; type: functional

SMILES	IC12 (Saccharomyces cerevisiae [1]) [µg/mL]	IC12 (Saccharomyces cerevisiae [2]) [µg/mL]
COC1=C(N)C(=O)c2nc(-c3nc(C(=O)O)c(C)c(-c4ccc(OC)c(OC)c4O)c3N)ccc2C1=O [STREPTONIGRIN]	> 1	0.4
CC1=C2[C@@H](O)[C@]3(O)CC[C@@H]4[C@@]5(C)C[C@H]5CC[C@@]4(C)[C@@H]3C[C@H]2OC1=O [SUREGADOLIDE A]	70	35

Source: ChEMBL document CHEMBL1150602, “Novel diterpene lactones from Suregada multiflora” (2002)
